Where no end group is shown, it is not given here.
Assays:
[1] = tested on: NIH-OVCAR-3 and SKOV3 cells; experiment: Ovarian adenocarcinoma xenograft model (Example 14, general results); type: in vivo, NOD/SCID mice; details: 400 mg/kg body weight
Description: Optionally, to implant NIH-OVCAR-3 or SKOV3 tumor cells into NOD/SCID mice, cell cultures are centrifuged to pellet the cells, the supernatant is aspirated, the cell pellet is resuspended in 10 ml of growth media and the cell number is determined using a hemocytometer. The cells are then washed in appropriate media and re-suspended at a concentration of 5×10^7 cells/ml in media. Using a 27 gauge needle and 1 cc syringe, 0.1 ml of the cell suspension is injected subcutaneously into the flanks of the mice. Tumors are then permitted to develop in vivo until the majority reach 100-200 mm^3 in tumor volume, which typically requires 1-2 weeks following implantation. These tumors are used to produce tissue subcutaneous implants into NOD/SCID mice which after 2 days are treated with either the test peptides or CAT.
Tumor volumes (V) are calculated by caliper measurement using standard measurements of the width (W), length (L) and thickness (T) of tumors. Animals are randomized into treatment groups so that the median tumor volumes of each group were similar at the start of dosing. % T/C values, as a measure of efficacy, are determined where C refers to volume of control or untreated tumor, and T refers to volume of treated tumor.
Animals are intraperitoneally (i.p.) injected with this formulation at 10 ml per kg body weight on a schedule.

K-562 = experiment: Apoptosis and cell viability in CML cell line (Example 12); type: cell-based, human; details: 0, 10 and 100 uM, 5 to 7 days
Description: (§1) For this work, the concentrations of SorC13 and SorC27 used are 0 uM, 10 uM and 100 uM. The experiments extend over a 5 to 7 day period. All measurements are done in quadruplicate with both a blank (no cells) and control (vehicle, no peptide) used to correct the test measurements. The time-response data, and the dose-response data are plotted as means±standard error of the mean.
The cell line K-562 (from ATCC CCL-243) is grown under the recommended conditions and in culture media recommended by ATCC. The cell lines were cultured under sterile conditions at 37° C., in a humidified 5% CO2 atmosphere.
Induction of apoptosis and attendant decrease is observed in cell viability in the cancer cell lines. From the large increases in the activities of the caspase 3/7 activity, it is clear that there is a time dependent effect and a dose dependent effect on the induction of apoptosis.

[2] = tested on: OV90 ovarian cancer cell line; experiment: Induction of apoptosis (APO-ONE caspase 3/7) and cell viability (CellTiter Blue); type: cell-based, human; parameters: key to Decline in cell viability: decreased (+); or not (−)
Description: OV-90 was cultured in a 1:1 mixture of MCDB 105 medium and Medium 199 supplemented with 15% (v/v) fetal bovine serum.
(§2) The levels of apoptotic induction and cell viability were determined by multiplexing the measurements for single samples. CellTiter Blue and APO-ONE assay systems from Promega allows the determination of cell viability correlated to cell number, and induction of apoptosis. This protocol uses a fluorgenic peptide that contains a peptide recognition-sequence for caspase 3 and caspase 7, […] proteolytic enzymes of the apoptosis cascade. The CellTiter Blue reagent was added to wells in a 96-well plate containing cells under test, immediately after addition of peptide solution or vehicle. About 5000 cells were plated into the wells the day before. At the chosen time (Day 1, Day 2 etc.) the fluorescence was measured at 590 nm (emission) after excitation at 560 nm. The caspase 3/7 activity was measured (485 nm Ex/527 nm Em) in the same wells after adding 120 uL of the Apo-ONE reagent, freeze fracturing at −80° C. for 1 hr, and incubating for 1 hr at room temperature.
(§3) For this work, the concentrations of SorC13 and SorC27 used were 0 uM, 1 uM, 10 uM and 100 uM. The experiments extended over a 5 to 7 day period. All measurements were done in quadruplicate with both a blank (no cells) and control (vehicle, no peptide) used to correct the test measurements. The time-response data, and the dose-response data were plotted as means±standard error of the mean. Any statistical comparisons were done with the Student's t-test or by ANOVA analysis over the dose course. The level of statistical significance was considered to be the 95% confidence interval (i.e., p≤0.05).
(§4) To compare the effect of the two SorC-peptides against the gold-standard treatment for ovarian cancers SorC13 or SorC27 was compared to treatment with a carboplatin and taxol (CAT) cocktail (10 uM Paclitaxel, 20 mM carboplatin) using the APO-ONE assay, which measures the combined activities of caspase 3 and caspase 7. Because of the mixed treatment (CAT), the effects were compared in terms of the ratio of treatment:control. If no effect was noted then the ratio=1. Comparisons of the treatment:control ratios were examined with the Student's t-test at a confidence level of 95%. Ratios of larger than a value of unity indicated a positive effect. The effects are illustrated in FIG. 5.

[3] = tested on: Human Non-Small Cell Lung Carcinoma (NSCLC) lines H1437 and H2087; experiment: Apoptosis (APO-ONE) and cell viability (CellTiter Blue) in NSCLC lines (Example 9); type: cell-based; details: 10 and 100 uM
Description: The effects of the C-peptides on metastasizing human lung carcinoma cells are studied. […] In vitro studies employing SorC13 and SorC27 are carried out in metastatic lymph node-derived cell lines to determine their effect on Human Non-Small Cell Lung Carcinoma (NSCLC) lines H1437 (from ATCC CRL-5872) and H2087 (from ATCC CRL-5922). Both of these cell lines are adenocarcinomas derived from the metastaic site (lymph node) and from a stage 1 NSCLC lung cancer. Major lymphatics of interest which are usefully treated with peptides of the invention include superfacial cervical nodes, axillary nodes, brachial nodes, mesenteric nodes and inguinal nodes.
For the study, the cell lines are grown under the recommended conditions and in culture media recommended by ATCC. The cell lines are cultured under sterile conditions at 37° C., in a humidified 5% CO2 atmosphere.
Both the APO-ONE assay and the CellTiter Blue (Promega) are used on the cell lines to evaluate apoptosis and cell viability, respectively.

[4] = tested on: OVCAR3 ovarian cancer cell line; experiment: Induction of apoptosis (APO-ONE caspase 3/7) and cell viability (CellTiter Blue); type: cell-based, human; parameters: key to Decline in cell viability: decreased (+); or not (−); details: for apoptosis (treatment:control ratio) compared with CAT cocktail: CAT = 10 uM Paclitaxel, 20 mM carboplatin
Description: OVCAR-3 was cultured in RPMI 1640 medium supplemented with 1.0 mM sodium pyruvate, 0.01 mg/mL insulin and 10% (v/v) fetal bovine serum.
as §2, §3, §4

Daudi = experiment: Apoptosis and cell viability in Burkitt's lymphoma cell line (Example 11); type: cell-based, human; details: 0, 10 and 100 uM, 5 to 7 days
Description: as §1
The cell line Daudi (from ATCC CCL-213) is grown under the recommended conditions and in culture media recommended by ATCC. The cell lines were cultured under sterile conditions at 37° C., in a humidified 5% CO2 atmosphere.
Induction of apoptosis and attendant decrease is observed in cell viability in the cancer cell lines. From the large increases in the activities of the caspase3/7 activity, it is clear that there is a time dependent effect and a dose dependent effect on the induction of apoptosis.

Sequence	growth rate of tumor cells [1]	induction of apoptosis and cell viability (K-562)	Apoptosis Index (1 = no effect) ([2]; Day 2, SorC27 100 uM)	Apoptosis Index (1 = no effect) ([2]; Day 3, SorC27 1 uM)	Apoptosis Index (1 = no effect) ([2]; Day 3, SorC27 10 uM)	Apoptosis Index (1 = no effect) ([2]; Day 3, SorC27 100 uM)	Decline in cell viability ([2]; SorC27)	induction of apoptosis [3]	apoptosis (treatment:control ratio) compared with CAT cocktail [4]	Apoptosis Index (1 = no effect) ([4]; Day 3, SorC27 10 uM)	Apoptosis Index (1 = no effect) ([4]; Day 3, SorC27 100 uM)	Apoptosis Index (1 = no effect) ([4]; Day 5, SorC27 10 uM)	Apoptosis Index (1 = no effect) ([4]; Day 5, SorC27 100 uM)	Decline in cell viability ([4]; SorC27)	induction of apoptosis and cell viability (Daudi)	apoptosis (treatment:control ratio) compared with CAT cocktail ([2]; CAT = 10 uM Paclitaxel, 20 mM carboplatin)	Apoptosis Index (1 = no effect) ([4]; Day 4, SorC13 100 uM)	Apoptosis Index (1 = no effect) ([4]; Day 5, SorC13 100 uM)	Decline in cell viability ([4]; Day 5, SorC13 100 uM)
EGKLSSNDTEGGLCKEFLHPSKVDLPR [SorC27]	substantially decreases the growth rate	induces apoptosis and decreases cell viability	1.8	1.2	1.9	1.9	+	induce apoptosis	produced apoptosis sooner and more intensely than the CAT cocktail	2.2	2.2	4.1	6.3	+	induces apoptosis and decreases cell viability				
KEFLHPSKVDLPR [SorC13, KEFLHPSKVDLPR]	substantially decreases the growth rate	induces apoptosis and decreases cell viability						induce apoptosis	produced earlier and more intense apoptosis cascade than the CAT cocktail						induces apoptosis and decreases cell viability	produced earlier and more intense apoptosis cascade than the CAT cocktail	1.4	1.7	+

— US10058587B2, “Peptide composition for cancer treatment by inhibiting TRPV6 calcium channel activity” (priority 2008, dated 2018)
